pIC50: −log10 of the molar value.
Legend:
IAV (H1N1/CApdm09) = assay: Influenza A virus inhibition (plaque) assay; type: cell-based; settings: read-out: concentration required to suppress IAV (by 50%)
SARS-CoV-2 = SARS-CoV-2 virus inhibition (plaque) assay; type: cell-based, Severe Acute Respiratory Syndrome Coronavirus 2; settings: read-out: concentration for 50% reduction of PFU / viral load (SARS-CoV-2)
LGTV = tested on: LGTV; parameters: species or system Langat virus
[1] = tested on: Langat virus strain TP21 (LGTV); type: cell-based; settings: n = 4

Sequence | pIC50 (IAV (H1N1/CApdm09)) | pIC50 (SARS-CoV-2) | permeabilization of LGTV particles (Sytox Green staining), single peptide (LGTV) | effect on virus infectivity (LGTV viral load) [1]
SVPTSVYTLGIKILWSAYKHRKTIEKSFNKGFYH [D-PLNC8 β] | ~6.30 | ~6.30 | permeabilized | 
LLGDFFRKSKEKIGKEFKRIVQRIKDFLRNLVPRTES [LL-37, human cathelicidin-derived antimicrobial peptide used as a control, reference compound] |  |  |  | did not affect virus infectivity
DLTTKLWSSWGYYLGKKARWNLKHPYVQF [D-PLNC8 α] |  |  | not as efficient | 
